Laboratory results as given in PubChem BioAssay AID1549 (Sanford-Burnham Center for Chemical Genomics, 2009).
Active and inactive are the calls of the source. No rule for the calls is given here.

Molecular target: Influenza A virus M2 proton channel (A/TW/4845/1999 H1N1)
Assay: NMR binding screen, influenza A virus M2 proton channel, Kd (AID 1549)
Settings: M2 protein

| Structure (SMILES) | Kd |
| --- | --- |
| COc1ccc(-c2c(O)c3c(OC)c4c(cc3oc2=O)OC(C)(C)CC4)cc1 | > 4 mM (inactive) |
| O=c1cnnc(Nc2ccc(O)cc2)[nH]1 | > 4 mM (inactive) |
| O=C(O)c1ccnc2ccccc12 | > 4 mM (inactive) |
| CCC[C@@H]1CCCCN1 | > 4 mM (inactive) |
| c1ccc(Cn2c(Nn3cnnc3)nc3ccccc32)cc1 | > 4 mM (inactive) |
| NC(=O)CSc1nc2ccccc2[nH]1 | > 4 mM (inactive) |
| CCN1CCC(NC2CCC(O)CC2)CC1 (centres undefined) | > 4 mM (inactive) |
| Cc1cc(C)cc(C(=O)N2CCC(C(N)=O)CC2)c1 | > 4 mM (inactive) |
| CC(=O)c1c(C)nc(-c2cccs2)n1O | > 4 mM (inactive) |
| Cc1ccc(F)cc1NC(=O)c1ccc2c(c1)OCO2 | > 4 mM (inactive) |
| CCOC(=O)c1c(C)cc(O)cc1O | > 4 mM (inactive) |
| O=C(NC(=S)NC1CCS(=O)(=O)C1)c1ccccc1 (centres undefined) | > 4 mM (inactive) |
| Cc1nnc(C)n1/N=C/c1cccs1 | > 4 mM (inactive) |
| COC(=O)c1cncn1C | > 4 mM (inactive) |
| O=C(O)c1ccc(N2CCOCC2)cc1 | > 4 mM (inactive) |
| CCc1ccccc1NC(=O)c1ccoc1C | > 4 mM (inactive) |
| CC(=O)CC1CCCCN1 (centres undefined) | > 4 mM (inactive) |
| O=C(c1ccc(Cl)c(F)c1F)N1CCCC1 | > 4 mM (inactive) |
| Cc1onc(-c2c(Cl)cccc2Cl)c1C(N)=O | > 4 mM (inactive) |
| CCCCCCCCCCCCCCC(C(=O)OC)C(O)(CC(=O)OC)C(=O)OC (centres undefined) | > 4 mM (inactive) |
| CCCn1c(C)cc(=O)[nH]c1=O | > 4 mM (inactive) |
| CC1(NC(=O)NCc2ccccc2)CCS(=O)(=O)C1 (centres undefined) | > 4 mM (inactive) |
| Cn1c(SCC(N)=O)nnc1-c1c[nH]c2ccccc12 | > 4 mM (inactive) |

| Structure (SMILES) | Kd |
| --- | --- |
| Cc1ccc(N)nc1 | > 4 mM (inactive) |
| Cc1noc(C)c1C(=O)NC1=NCCS1 | > 4 mM (inactive) |
| Cc1nn2c(nc1=O)SCC(c1ccccc1)=N2 | > 4 mM (inactive) |
| CC(=O)N/N=C(\C)c1cccc(N)c1 | > 4 mM (inactive) |
| COc1ccc(/C=C2/NC(=S)NC2=O)cc1 | > 4 mM (inactive) |
| NCc1cccc2c1OCCCO2 | > 4 mM (inactive) |
| NC(=O)Cn1nc(-c2ccco2)ccc1=O | > 4 mM (inactive) |
| Nc1ccc(N2CCOCC2)cc1 | > 4 mM (inactive) |
| Cc1cc(SCC(=O)c2ccccc2)nc(=O)[nH]1 | > 4 mM (inactive) |
| Cc1nc2cc(Cl)ccc2n1CCO | > 4 mM (inactive) |
| Cc1cc(N2CCN(C)CC2)ncn1 | > 4 mM (inactive) |
| Cc1ccc(C)n1NC(=O)c1ccco1 | > 4 mM (inactive) |
| O=C(O)Cc1csc(-c2ccccc2)n1 | > 4 mM (inactive) |
| Cc1sc2nc(C)n(NC(N)=O)c(=O)c2c1C | > 4 mM (inactive) |
| CC1(C)C2CC(=O)[C@]3(C)C(CC[C@@]4(C)[C@H](c5ccoc5)OC(=O)[C@H]5O[C@]543)[C@@]2(C)C(=O)C[C@H]1O (some centres undefined) | > 4 mM (inactive) |
| Cc1cccc(OCc2nnc(N)s2)c1 | > 4 mM (inactive) |
| CCOC(=O)c1ccc(F)cc1F | > 4 mM (inactive) |
| OCc1cccc2nonc12 | > 4 mM (inactive) |
| C/C=C/COc1nc2c(c(=O)n(C)c(=O)n2C)n1C | > 4 mM (inactive) |
| CCC(C)C(=O)O[C@@H]1C[C@@]2(C)[C@H](c3ccoc3)OC(=O)CC23OC2(C)OC34[C@H](OC(=O)C(C)C)[C@@]3(O)[C@@H](OC(=O)C5(C)OC5C)[C@@]5(C)C[C@]3(O)[C@@](C)([C@H]5CC(=O)OC)C14O2 (some centres undefined) | > 4 mM (inactive) |
| COCC(=O)Nc1c(C(N)=O)oc2ccccc12 | > 4 mM (inactive) |
| CC(=O)NC12CC3CC(CC(O)(C3)C1)C2 | > 4 mM (inactive) |
| N[C@@H](Cc1ccc(O)c(O)c1)C(=O)O | > 4 mM (inactive) |

| Structure (SMILES) | Kd |
| --- | --- |
| Cc1ccc(-c2cc(C(=O)N3CCCC3)no2)cc1 | > 4 mM (inactive) |
| O=S(=O)(Cc1ccc(Cl)cc1)N1CCCC1 | > 4 mM (inactive) |
| COc1cc(C(=S)N2CCOCC2)ccc1O | > 4 mM (inactive) |
| CN(C)c1oc(-c2ccccc2Cl)nc1C#N | > 4 mM (inactive) |
| COc1cc2c(cc1OC)[C@@H]1C(=O)c3ccc4oc(C(C)C)cc4c3O[C@@H]1CO2 | > 4 mM (inactive) |
| Cc1c(C(=O)Nc2ccccc2)sc(N)c1C(N)=O | > 4 mM (inactive) |
| COc1ccccc1NC(C)=O | > 4 mM (inactive) |
| CNC(=O)COc1cccc2c1CCNC2=O | > 4 mM (inactive) |
| CNc1nc(OC)nc(N2CCOCC2)n1 | > 4 mM (inactive) |
| O=C(c1cccs1)N1CCCc2ccccc21 | > 4 mM (inactive) |
| CN1CC(=O)Nc2ccc([N+](=O)[O-])cc2C1=O | > 4 mM (inactive) |
| COc1c2occc2cc2ccc(=O)oc12 | > 4 mM (inactive) |
| O=C1CCC(=O)N1c1cccnc1 | > 4 mM (inactive) |
| CC(C)c1c(O)ccc2c1CCC1C(C)(C)CCC[C@]21C (some centres undefined) | > 4 mM (inactive) |
| COc1ccc(NC(=O)CSc2nccc(=O)[nH]2)cc1 | > 4 mM (inactive) |
| O=C(Nc1cccc2cccnc12)c1cccnc1 | > 4 mM (inactive) |
| Cc1nnc(SCC(=O)NC2CCCC2)[nH]c1=O | > 4 mM (inactive) |
| O=C(Nc1cccnc1)c1ccc(Br)s1 | > 4 mM (inactive) |
| CN1C2CC(OC(=O)[C@H](CO)c3ccccc3)C[C@H]1[C@H]1OC21 (some centres undefined) | > 4 mM (inactive) |
| O=S(=O)(NCc1ccco1)N1CCOCC1 | > 4 mM (inactive) |
| CC(=O)Nc1ccc(NC(=O)/C=C\C(=O)O)cc1 | > 4 mM (inactive) |
| NC(=O)CC1Nc2cccc3cccc(c23)NC1=O (centres undefined) | > 4 mM (inactive) |
| Cc1ccccc1C(=O)Nn1cnnc1 | > 4 mM (inactive) |

| Structure (SMILES) | Kd |
| --- | --- |
| Nc1nnc(-c2ccncc2)s1 | > 4 mM (inactive) |
| CCOC(=O)c1c(C)n([O-])c2ccccc2[n+]1=O | > 4 mM (inactive) |
| Cc1cc(=O)cc(C)n1-c1ccccc1N | > 4 mM (inactive) |
| COc1cc(NC(=O)c2ccccc2)c(C)cc1N | > 4 mM (inactive) |
| CC(=O)Nc1cc(O)cc(O)c1 | > 4 mM (inactive) |
| Cc1cc(NC(=O)CSc2ccnc(=O)[nH]2)no1 | > 4 mM (inactive) |
| CNS(=O)(=O)c1ccc2[nH]c(=O)[nH]c2c1 | > 4 mM (inactive) |
| CC(=O)N1CCN(C2CCSC2)CC1 (centres undefined) | > 4 mM (inactive) |
| O=[N+]([O-])c1cccc(-c2nnco2)c1 | > 4 mM (inactive) |
| S=c1nc[nH]c2c1cnn2-c1ccccc1 | > 4 mM (inactive) |
| Cc1ccc(C)c(S(=O)(=O)NCc2cccnc2)c1 | > 4 mM (inactive) |
| CC(=O)Nc1ccc(S(N)(=O)=O)cc1 | > 4 mM (inactive) |
| OCc1cccs1 | > 4 mM (inactive) |
| CNC(=O)C(=O)NCc1ccc(C)cc1 | > 4 mM (inactive) |
| O=C(O)CNCC(O)Cn1c2ccccc2c2ccccc21 (centres undefined) | > 4 mM (inactive) |
| CN(C)C(=O)c1ccc(-c2n[nH]c(=O)c3ccccc23)cc1 | > 4 mM (inactive) |
| Cc1cc(C(F)(F)F)n2nc(C(=O)O)c(Cl)c2n1 | > 4 mM (inactive) |
| O=C(COc1ccccc1)N1CCc2ccccc2C1 | > 4 mM (inactive) |
| Cc1nn2c(=O)nc3sc4c(c3c2[nH]c1=O)CCCC4 | > 4 mM (inactive) |
| CN(C)S(=O)(=O)c1ccccc1C#N | > 4 mM (inactive) |
